Measured values: ChEMBL document CHEMBL1909046, “DrugMatrix in vitro pharmacology data”

Experiments:
Cannabinoid receptor 1 = Cannabinoid receptor 1 (Homo sapiens, UniProt P21554); assay type: cell membranes, Chem-1, Membrane; settings: chem-1; also: in other assays of this panel Not Active means under 50% inhibition at 10 µM
[1] = DRUGMATRIX: beta-Lactamase enzyme inhibition (substrate: Nitrocefin); design: species or system Bacillus cereus; settings: Not Active = under 50% inhibition at 10 µM
[2] = target: Tyrosine-protein kinase Fyn (Homo sapiens, UniProt P06241); assay: biochemical; assay type: cell-based, Insect cells; settings: insect cells;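 also: enzymatic inhibition of Fyn kinase activity measured with Poly(Glu:Tyr) as the phosphorylation substrate; in other assays of this panel Not Active means under 50% inhibition at 10 µM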
Melanocortin receptor 4 = Melanocortin receptor 4 (Homo sapiens, UniProt P32245); assay type: cell membranes, HEK293, Membrane; settings: hek293; also: in other assays of this panel Not Active means under 50% inhibition at 10 µM
Melanocortin receptor 3 = Melanocortin receptor 3 (Homo sapiens, UniProt P41968); assay type: cell membranes, HEK293, Membrane; settings: hek293; also: in other assays of this panel Not Active means under 50% inhibition at 10 µM
Cytochrome P450 2C19 = Cytochrome P450 2C19 (Homo sapiens, UniProt P33261); settings: bti-tn-5b1-4; also: in other assays of this panel Not Active means under 50% inhibition at 10 µM
Cytochrome P450 3A4 = Cytochrome P450 3A4 (Homo sapiens, UniProt P08684); settings: bti-tn-5b1-4; also: in other assays of this panel Not Active means under 50% inhibition at 10 µM
Chain of Cytochrome P450 3A4 (P08684 whole entry): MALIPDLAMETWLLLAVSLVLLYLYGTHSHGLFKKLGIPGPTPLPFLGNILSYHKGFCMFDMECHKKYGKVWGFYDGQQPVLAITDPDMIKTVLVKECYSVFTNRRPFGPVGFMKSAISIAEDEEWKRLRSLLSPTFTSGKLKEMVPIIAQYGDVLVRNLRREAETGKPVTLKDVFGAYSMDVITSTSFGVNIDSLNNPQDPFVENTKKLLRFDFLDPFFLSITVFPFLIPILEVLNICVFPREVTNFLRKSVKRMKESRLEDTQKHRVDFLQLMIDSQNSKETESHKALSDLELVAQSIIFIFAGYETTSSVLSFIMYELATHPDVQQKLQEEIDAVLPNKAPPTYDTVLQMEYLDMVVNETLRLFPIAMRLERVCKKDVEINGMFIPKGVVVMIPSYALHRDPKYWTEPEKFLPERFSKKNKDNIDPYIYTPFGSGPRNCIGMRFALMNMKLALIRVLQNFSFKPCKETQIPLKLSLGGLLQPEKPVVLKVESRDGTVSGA

Chain of Tyrosine-protein kinase Fyn (P06241 whole entry): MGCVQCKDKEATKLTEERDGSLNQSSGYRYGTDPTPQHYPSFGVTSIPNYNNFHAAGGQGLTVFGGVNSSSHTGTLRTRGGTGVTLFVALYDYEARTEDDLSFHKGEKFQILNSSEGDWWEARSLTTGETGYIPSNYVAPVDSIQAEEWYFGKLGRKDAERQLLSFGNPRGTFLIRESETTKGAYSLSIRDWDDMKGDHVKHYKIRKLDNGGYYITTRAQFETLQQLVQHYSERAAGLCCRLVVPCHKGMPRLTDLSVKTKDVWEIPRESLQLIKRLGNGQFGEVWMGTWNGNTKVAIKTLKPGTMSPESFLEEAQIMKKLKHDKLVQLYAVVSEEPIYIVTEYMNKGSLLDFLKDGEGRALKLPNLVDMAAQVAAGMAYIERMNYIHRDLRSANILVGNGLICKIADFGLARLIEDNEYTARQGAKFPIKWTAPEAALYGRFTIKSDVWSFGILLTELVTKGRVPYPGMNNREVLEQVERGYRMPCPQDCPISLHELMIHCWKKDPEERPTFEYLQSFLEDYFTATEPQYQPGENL
Chain of Cannabinoid receptor 1 (P21554 whole entry): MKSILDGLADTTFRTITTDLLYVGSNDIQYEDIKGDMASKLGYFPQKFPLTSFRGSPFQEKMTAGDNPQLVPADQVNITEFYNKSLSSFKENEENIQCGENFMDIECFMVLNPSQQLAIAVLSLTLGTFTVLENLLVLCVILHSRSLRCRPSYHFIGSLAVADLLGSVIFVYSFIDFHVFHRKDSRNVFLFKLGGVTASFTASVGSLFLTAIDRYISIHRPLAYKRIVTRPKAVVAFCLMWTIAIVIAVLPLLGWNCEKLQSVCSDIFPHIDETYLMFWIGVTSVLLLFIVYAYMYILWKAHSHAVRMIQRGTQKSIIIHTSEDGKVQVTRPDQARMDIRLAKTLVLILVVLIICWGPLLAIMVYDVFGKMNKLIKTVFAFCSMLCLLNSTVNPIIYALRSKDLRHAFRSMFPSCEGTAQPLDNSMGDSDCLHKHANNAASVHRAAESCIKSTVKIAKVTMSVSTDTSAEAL
Chain of Cytochrome P450 2C19 (P33261 whole entry): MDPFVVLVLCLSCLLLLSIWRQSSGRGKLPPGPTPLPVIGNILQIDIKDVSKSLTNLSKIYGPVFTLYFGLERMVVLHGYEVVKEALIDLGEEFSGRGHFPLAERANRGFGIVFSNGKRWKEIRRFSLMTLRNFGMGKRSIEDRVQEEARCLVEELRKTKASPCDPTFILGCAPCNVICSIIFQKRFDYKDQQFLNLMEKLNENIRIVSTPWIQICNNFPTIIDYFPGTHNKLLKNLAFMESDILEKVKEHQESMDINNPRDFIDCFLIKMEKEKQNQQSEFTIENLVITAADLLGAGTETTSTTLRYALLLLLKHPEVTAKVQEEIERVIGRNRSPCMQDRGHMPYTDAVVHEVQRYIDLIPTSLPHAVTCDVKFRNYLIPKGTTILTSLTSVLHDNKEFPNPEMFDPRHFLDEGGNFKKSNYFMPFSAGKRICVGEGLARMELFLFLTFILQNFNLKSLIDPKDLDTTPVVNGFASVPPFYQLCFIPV
Chain of Melanocortin receptor 3 (P41968 whole entry): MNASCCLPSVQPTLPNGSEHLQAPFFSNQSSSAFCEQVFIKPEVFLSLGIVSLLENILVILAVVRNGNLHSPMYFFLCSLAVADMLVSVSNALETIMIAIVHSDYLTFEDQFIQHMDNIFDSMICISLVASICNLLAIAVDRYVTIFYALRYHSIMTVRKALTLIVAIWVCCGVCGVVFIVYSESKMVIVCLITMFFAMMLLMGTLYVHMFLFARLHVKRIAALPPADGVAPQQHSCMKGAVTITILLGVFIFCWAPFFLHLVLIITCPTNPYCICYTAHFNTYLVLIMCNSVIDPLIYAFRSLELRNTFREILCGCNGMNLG
Chain of Melanocortin receptor 4 (P32245 whole entry): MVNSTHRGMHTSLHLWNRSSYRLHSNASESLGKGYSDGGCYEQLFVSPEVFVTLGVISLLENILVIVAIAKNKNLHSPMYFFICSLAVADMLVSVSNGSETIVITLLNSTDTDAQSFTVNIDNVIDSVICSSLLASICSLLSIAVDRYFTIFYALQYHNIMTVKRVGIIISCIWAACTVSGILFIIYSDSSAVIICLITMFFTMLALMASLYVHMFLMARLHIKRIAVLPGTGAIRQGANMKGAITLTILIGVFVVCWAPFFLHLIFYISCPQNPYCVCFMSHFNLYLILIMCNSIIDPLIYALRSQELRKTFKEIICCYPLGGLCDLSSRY

OC(CCCN1CCCCC1)(c1ccccc1)c1ccccc1 [DIPHENIDOL]
Not Active: IC50 (Cannabinoid receptor 1) | IC50 [1] | Ki [1] | IC50 [2] | IC50 (Melanocortin receptor 4) | IC50 (Melanocortin receptor 3) | IC50 (Cytochrome P450 2C19) | Ki (Cytochrome P450 2C19) | IC50 (Cytochrome P450 3A4) | Ki (Cytochrome P450 3A4)

CCC(=O)O[C@]1(C(=O)CCl)[C@@H](C)C[C@H]2[C@@H]3CCC4=CC(=O)C=C[C@]4(C)[C@@]3(F)[C@@H](O)C[C@@]21C [CLOBETASOL PROPIONATE]
Not Active: IC50 (Cannabinoid receptor 1) | IC50 [1] | Ki [1] | IC50 [2] | IC50 (Melanocortin receptor 4) | IC50 (Melanocortin receptor 3) | IC50 (Cytochrome P450 2C19) | Ki (Cytochrome P450 2C19) | IC50 (Cytochrome P450 3A4) | Ki (Cytochrome P450 3A4)

CCCN(CCC)S(=O)(=O)c1ccc(C(=O)O)cc1 [PROBENECID]
Not Active: IC50 (Cannabinoid receptor 1) | IC50 [1] | Ki [1] | IC50 [2] | IC50 (Melanocortin receptor 4) | IC50 (Melanocortin receptor 3) | IC50 (Cytochrome P450 2C19) | Ki (Cytochrome P450 2C19) | IC50 (Cytochrome P450 3A4) | Ki (Cytochrome P450 3A4)

O=C(O)CCNC(=O)c1ccccc1 [BETAMIPRON]
Not Active: IC50 (Cannabinoid receptor 1) | IC50 [1] | Ki [1] | IC50 [2] | IC50 (Melanocortin receptor 4) | IC50 (Melanocortin receptor 3) | IC50 (Cytochrome P450 2C19) | Ki (Cytochrome P450 2C19) | IC50 (Cytochrome P450 3A4) | Ki (Cytochrome P450 3A4)

C[C@H]1O[C@@H](n2cc(F)c(=O)[nH]c2=O)[C@H](O)[C@@H]1O [DOXIFLURIDINE]
Not Active: IC50 (Cannabinoid receptor 1) | IC50 [1] | Ki [1] | IC50 [2] | IC50 (Melanocortin receptor 4) | IC50 (Melanocortin receptor 3) | IC50 (Cytochrome P450 2C19) | Ki (Cytochrome P450 2C19) | IC50 (Cytochrome P450 3A4) | Ki (Cytochrome P450 3A4)

O=c1cnn([C@@H]2O[C@H](CO)[C@@H](O)[C@H]2O)c(=O)[nH]1 [6-AZAURIDINE]
Not Active: IC50 (Cannabinoid receptor 1) | IC50 [1] | Ki [1] | IC50 [2] | IC50 (Melanocortin receptor 4) | IC50 (Melanocortin receptor 3) | IC50 (Cytochrome P450 2C19) | Ki (Cytochrome P450 2C19) | IC50 (Cytochrome P450 3A4) | Ki (Cytochrome P450 3A4)

COC(=O)CCc1ccc(OCC(O)CNC(C)C)cc1 (centres undefined) [ESMOLOL]
Not Active: IC50 (Cannabinoid receptor 1) | IC50 [1] | Ki [1] | IC50 [2] | IC50 (Melanocortin receptor 4) | IC50 (Melanocortin receptor 3) | IC50 (Cytochrome P450 2C19) | Ki (Cytochrome P450 2C19) | IC50 (Cytochrome P450 3A4) | Ki (Cytochrome P450 3A4)

C[C@@H]1O[C@@H](O[C@@H]2C=C3CC[C@@H]4[C@H](CC[C@]5(C)[C@@H](c6ccc(=O)oc6)CC[C@]45O)[C@@]3(C)CC2)[C@H](O)[C@H](O)[C@H]1O [PROSCILLARIDIN]
Not Active: IC50 (Cannabinoid receptor 1) | IC50 [1] | Ki [1] | IC50 [2] | IC50 (Melanocortin receptor 4) | IC50 (Melanocortin receptor 3) | IC50 (Cytochrome P450 2C19) | Ki (Cytochrome P450 2C19) | IC50 (Cytochrome P450 3A4) | Ki (Cytochrome P450 3A4)

NYSTATIN
Not Active: IC50 (Cannabinoid receptor 1) | Ki (Cannabinoid receptor 1) | IC50 [1] | Ki [1] | IC50 [2] | Ki [2] | IC50 (Melanocortin receptor 4) | Ki (Melanocortin receptor 4) | IC50 (Melanocortin receptor 3) | Ki (Melanocortin receptor 3) | IC50 (Cytochrome P450 2C19) | Ki (Cytochrome P450 2C19) | IC50 (Cytochrome P450 3A4) | Ki (Cytochrome P450 3A4)

Brc1c(NC2=NCCN2)ccc2nccnc12 [BRIMONIDINE]
Not Active: IC50 (Cannabinoid receptor 1) | IC50 [1] | Ki [1] | IC50 [2] | IC50 (Melanocortin receptor 4) | IC50 (Melanocortin receptor 3) | IC50 (Cytochrome P450 2C19) | Ki (Cytochrome P450 2C19) | IC50 (Cytochrome P450 3A4) | Ki (Cytochrome P450 3A4)

CC1(C)S[C@@H]2[C@H](NC(=O)[C@H](N)c3ccccc3)C(=O)N2[C@H]1C(=O)O [AMPICILLIN]
Not Active: IC50 (Cannabinoid receptor 1) | IC50 [1] | Ki [1] | IC50 [2] | IC50 (Melanocortin receptor 4) | IC50 (Melanocortin receptor 3) | IC50 (Cytochrome P450 2C19) | Ki (Cytochrome P450 2C19) | IC50 (Cytochrome P450 3A4) | Ki (Cytochrome P450 3A4)
